Patent US5686448A (priority 1995, dated 1997)
Read-outs that look alike come from different tables or passages of the source.

Legend:
HSV-1 (F strain) = system: HSV-1 (F strain)
Experimental: (§1) In Series No. 1 of Example No. 1, monolayer cultures of Vero, RK-13 (rabbit kidney), and WISH (human amnion, Hayflick) cells were used in the experiments of Example No. 1. The cells were grown in Basal Minimal Eagle's Media supplemented with 5% fetal calf serum, 1% glutamine, sodium bicarbonate and antibiotics. Cultures were maintained in a maintenance media that was the same media, except that the maintenance media contained 2% fetal calf serum. An F Strain of HSV-1 was chosen because it is a well-known prototype of HSV-1. This F Strain can be obtained from the American Type Culture Collection (ATCC), 12301 Parklawn Drive, Rockville, Md. 20852, at which it is identified as ATC-VR 733. For studies with HSV-2, a G strain of HSV-2 (ATCC-VR 734) and a 333 strain of HSV-2 were selected. These strains also can be obtained from the ATCC.
Two methods were used to test the drug's effectiveness in the suppression of viral growth. In the pre-inoculation experiments, the drug was added after adsorption of the virus. In the pre-incubation experiments, the drug was added prior to infection of the cell cultures.
(§2) Accordingly, the pre-inoculation experiments measured the effect of the drug on a cell that was already infected with the virus. The pre-incubation experiments measured the cell cultures that were treated with the drug prior to the inoculation to determine if these cells then would be permissive or non-permissive to the tested virus. In these experiments, plaque reduction assays provided a quantitative measure of antiviral activity and was deemed to be reliable and objective.
(§3) In the pre-incubation experiments, the media was either decanted or gently aspirated from the cultures. After decanting or aspirating, 1 ml of the drug dilution plus maintenance media was added to the cultures. The cultures that served as virus controls or cell controls received 2 ml of maintenance media. After the pre-treatment period, the media was again aspirated and the cell cultures were infected with the virus.
(§4) When this occurred, the cultures were fixed and stained with crystal violet. The plaque were then carefully counted under the microscope. By such a counting and careful comparison, percentages of plaque inhibition in the treated cultures were then calculated.
These duplicate wells were incubated for 3 hours. After this time, the maintenance media was aspirated and the cultures were infected. Fresh maintenance media was then added.

HSV-2 (333 strain) = details: for % plaque inhibition: 2 hours pre-incubation
Experimental: as §1, §2, §3, §4
The 333 strain, which can be obtained from ATCC, was used.

RK-13 cells = details: 25 mg/ml, 48 hours
HSV-1 (McKrae strain) [1] = details: 20 mg/ml
HSV-1 (McKrae strain) [2] = details: for cells exhibiting CPE, area of infection per field: 20 mg/ml
[3] = Exp. 1E, 4 hours pre-incubation, 100 mg/culture
[4] = Exp. 1E, 7 hours pre-incubation, 100 mg/culture

For `CC[N+](CC)(CC)CC.[Cl-]` [TEAC, tetraethylammonium chloride], the “% plaque inhibition” value (HSV-1 (F strain); Exp. 1D, 3 hours before infection, 12.5 mg/culture) was 80%, the “% plaque inhibition” value (HSV-1 (F strain); Exp. 1D, 3 hours before infection, 25.0 mg/culture) was 79% and the “% plaque inhibition” value (HSV-1 (F strain); Exp. 1D, 3 hours before infection, 50.0 mg/culture) was 82%. For the same compound, the “% plaque inhibition” value (HSV-1 (F strain); Exp. 1D, 3 hours before infection, 100.0 mg/culture) was 79%, the “% plaque inhibition” value (HSV-1 (F strain); Exp. 1E, 2 hours pre-incubation, 12.5 mg/culture) was 18% and the “% plaque inhibition” value (HSV-1 (F strain); Exp. 1E, 2 hours pre-incubation, 25 mg/culture) was 17%. The “% plaque inhibition” value (HSV-1 (F strain); Exp. 1E, 2 hours pre-incubation, 50 mg/culture) was 24%, the “% plaque inhibition” value (HSV-1 (F strain); Exp. 1E, 2 hours pre-incubation, 100 mg/culture) was 68% and the “% plaque inhibition” value (HSV-1 (F strain); Exp. 1E, 4 hours pre-incubation, 12.5 mg/culture) was “less than 20%”. The “% plaque inhibition” value (HSV-1 (F strain); Exp. 1E, 4 hours pre-incubation, 50 mg/culture) was 63%, the “% plaque inhibition” value (HSV-1 (F strain); [3]) was 100% and the “cell layer appearance (thin)” value (HSV-1 (F strain); [3]) was “thin”. The “% plaque inhibition” value (HSV-1 (F strain); Exp. 1E, 7 hours pre-incubation, 12.5 mg/culture) was 76%, the “% plaque inhibition” value (HSV-1 (F strain); [4]) was 100% and the “cell layer appearance (thin)” value (HSV-1 (F strain); [4]) was “thin”. The “permissiveness of cells to virus” value (HSV-1 (F strain); added before viral inoculation, summary) was “rendered the cells non-permissive to the virus and no plaque formed”, the “sensitivity to TEAC vs HSV-1” value (HSV-2 (333 strain); 333 strain) was “even more sensitive to TEAC than HSV-1” and the “% plaque inhibition” value (HSV-2 (333 strain); 12.5 mg/culture) was 25%. The “% plaque inhibition” value (HSV-2 (333 strain); 25 mg/culture) was 42%, the “% plaque inhibition” value (HSV-2 (333 strain); 50 mg/culture) was 56% and the “inhibition of in vitro replication” value (HSV-2 (333 strain); HSV-2, summary) was “inhibited the in vitro replication of HSV-1 and HSV-2”. For the same compound, the “change in morphology of cells” value (WISH cells; 5, 2.5, 1.25 mg/culture overnight) was “No change in the morphology of the cells”, the “growth or general appearance vs untreated” value (WISH cells; 5, 2.5, 1.25 mg/culture, additional 24 hours in fresh medium) was “no apparent difference in the growth or general appearance” and the toxicity (RK-13 cells) was “toxicity”. It also gave a virus yield (HSV-1 (McKrae strain) [1]; cell, 6 hours P.I., 10^-1) of 2 PFU/ml, a virus yield (HSV-1 (McKrae strain) [1]; cell, 6 hours P.I., 10^-2) of 5 PFU/ml and a virus yield (HSV-1 (McKrae strain) [1]; cell, 6 hours P.I., Und.) of 12 PFU/ml. For the same compound, the virus yield (HSV-1 (McKrae strain) [1]; cell, 10 hours P.I., 10^-1) was 3 PFU/ml, the virus yield (HSV-1 (McKrae strain) [1]; cell, 10 hours P.I., 10^-2) was 0 PFU/ml and the virus yield (HSV-1 (McKrae strain) [1]; cell, 10 hours P.I., Und.) was 13 PFU/ml. For the same compound, the virus yield (HSV-1 (McKrae strain) [1]; cell, 20 hours P.I., 10^-1) was 5 PFU/ml, the virus yield (HSV-1 (McKrae strain) [1]; cell, 20 hours P.I., 10^-2) was 0 PFU/ml and the virus yield (HSV-1 (McKrae strain) [1]; cell, 20 hours P.I., Und.) was 42 PFU/ml. For the same compound, the virus yield (HSV-1 (McKrae strain) [1]; cell, 24 hours P.I., 10^-1) was 32 PFU/ml, the virus yield (HSV-1 (McKrae strain) [1]; cell, 24 hours P.I., 10^-2) was 10 PFU/ml and the virus yield (HSV-1 (McKrae strain) [1]; cell, 24 hours P.I., Und.) was 58 PFU/ml. The virus yield (HSV-1 (McKrae strain) [1]; cell, 28 hours P.I., 10^-1) was “TMTC”, the virus yield (HSV-1 (McKrae strain) [1]; cell, 28 hours P.I., 10^-2) was 15 PFU/ml and the virus yield (HSV-1 (McKrae strain) [1]; cell, 28 hours P.I., Und.) was “W.O”. For the same compound, the virus yield (HSV-1 (McKrae strain) [1]; supernatant, 6 hours P.I., 10^-1) was 0 PFU/ml, the virus yield (HSV-1 (McKrae strain) [1]; supernatant, 6 hours P.I., 10^-2) was 0 PFU/ml and the virus yield (HSV-1 (McKrae strain) [1]; supernatant, 6 hours P.I., 10^-3) was 0 PFU/ml. It also gave a virus yield (HSV-1 (McKrae strain) [1]; supernatant, 10 hours P.I., 10^-1) of 0 PFU/ml, a virus yield (HSV-1 (McKrae strain) [1]; supernatant, 10 hours P.I., 10^-2) of 0 PFU/ml and a virus yield (HSV-1 (McKrae strain) [1]; supernatant, 10 hours P.I., 10^-3) of 0 PFU/ml. The virus yield (HSV-1 (McKrae strain) [1]; supernatant, 20 hours P.I., 10^-1) was 0 PFU/ml, the virus yield (HSV-1 (McKrae strain) [1]; supernatant, 20 hours P.I., 10^-2) was 0 PFU/ml and the virus yield (HSV-1 (McKrae strain) [1]; supernatant, 20 hours P.I., 10^-3) was 0 PFU/ml. For the same compound, the virus yield (HSV-1 (McKrae strain) [1]; supernatant, 24 hours P.I., 10^-1) was 0 PFU/ml, the virus yield (HSV-1 (McKrae strain) [1]; supernatant, 24 hours P.I., 10^-2) was 0 PFU/ml and the virus yield (HSV-1 (McKrae strain) [1]; supernatant, 24 hours P.I., 10^-3) was 0 PFU/ml. It also gave a virus yield (HSV-1 (McKrae strain) [1]; supernatant, 28 hours P.I., 10^-1) of 0 PFU/ml, a virus yield (HSV-1 (McKrae strain) [1]; supernatant, 28 hours P.I., 10^-2) of 0 PFU/ml and a virus yield (HSV-1 (McKrae strain) [1]; supernatant, 28 hours P.I., 10^-3) of 0 PFU/ml. For the same compound, the “cells exhibiting CPE, area of infection per field” value (HSV-1 (McKrae strain) [2]; 6 hours P.I., virus control 1/4) was 1/6, the “cells exhibiting CPE, area of infection per field” value (HSV-1 (McKrae strain) [2]; 30 hours P.I., virus control 1/2) was “scattered” and the “No. of cells with virus particles” value (HSV-1 (McKrae strain) [2]; 6 hours P.I., 100 cells examined, control 0) was 0. The “No. of cells with internuclear dense bodies” value (HSV-1 (McKrae strain) [2]; 6 hours P.I., 100 cells examined, control 14) was 12, the Total % (HSV-1 (McKrae strain) [2]; 6 hours P.I., 100 cells examined, control 14%) was 12% and the cell membrane appearance (HSV-1 (McKrae strain) [2]; 6 hours post infection) was “unusually extended and wavy”. The “No. of cells with internuclear dense bodies” value (HSV-1 (McKrae strain) [2]; 24 hours P.I., 300 cells examined, control 0 of 50) was 12, the “No. of cells with virus particles” value (HSV-1 (McKrae strain) [2]; 24 hours P.I., 300 cells examined, control 50 of 50) was 8 and the Total % (HSV-1 (McKrae strain) [2]; 24 hours P.I., 300 cells examined, control 100%) was 6%. The nucleocapsid size (HSV-1 (McKrae strain) [2]; 24 hours post infection) was “about 99.6 A”, the nucleocapsids in cytoplasm (HSV-1 (McKrae strain) [2]; 24 hours post infection) was “coreless nucleocapsids in paracrystalline arrays” and the “virus particles in inter-cellular space” value (HSV-1 (McKrae strain) [2]; 24 hours post infection) was “some abnormal virus particles were detected”. The cell layer appearance (vaccinia) was “thin”, the plaque formation (vaccinia) was “did not have any plaque” and the crusting (HSV type 1; Patient L, 2.9 cc, normally 3 weeks) was “on the 7th day after the treatment, the crusting had all disappeared”. For the same compound, the labialis lesion (HSV type 1; Patient M, 1% TEAC ointment resumed, three days later) was “the lesion had not spread and had now crusted” and the clearing of lesions (HSV type 1; Patient M, 1% TEAC ointment, five days later) was “cleared in a shorter time period than usual”.
